Common to all, as to format: in vivo
Experiment [1] concerns Erysiphe graminis. The experiment can be described thus: Powdery Mildew of Wheat (Erysiphe graminis--ERYSGT). Conditions: wheat (cultivar Monon), 100 ppm spray to run off, inoculated after 24 hours; for pest or weed control at 100 ppm: Blumeria graminis, 1DP, read-out: control of plant disease, ERYSGT 1DP. The procedure:
(§1) Compound Formulation: Compound formulation was accomplished by dissolving technical materials in acetone, with serial dilutions then made in acetone to obtain desired rates. Final treatment volumes were obtained by adding nine volumes 0.05% aqueous Tween-20 or Triton X-100, depending upon the pathogen.
Powdery Mildew of Wheat (Erysiphe graminis--ERYSGT): Wheat (cultivar Monon) was grown in a soilless peat-based potting mixture (Metromix) until the seedlings were 1-2 leaf (BBCH 12). These plants were then sprayed to run off with the test compound at a rate of 100 ppm. After 24 hours the test plants were inoculated with Erysiphe graminis by dusting spores from stock plants onto the test plants. The plants were then transferred to the greenhouse until disease developed on the untreated control plants.
(§2) the following table presents the activity of typical compounds of the present invention when evaluated in these experiments. The effectiveness of the test compounds in controlling disease was rated using the following scale: […]

Experiment [2] deals with Phytophthora infestans. The experiment can be described thus: whole plant or invertebrate. The following applies: for pest or weed control at 100 ppm: Phytophthora infestans, 24 h, read-out: control of plant disease, PHYTIN 1DP; for control of plant disease, PHYTIN 1DP: tomatoes (cultivar Rutgers), 100 ppm spray to run off, inoculated after 24 hours.
Experiment [3] has as its system Leptosphaeria nodorum. The experiment can be described thus: Glume blotch of wheat (Leptosphaeria nodorum--LEPTNO). The following applies: wheat (cultivar Monon), 100 ppm spray to run off, inoculated after 24 hours; for pest or weed control at 100 ppm: Parastagonospora nodorum, 1DP, read-out: control of plant disease, LEPTNO 1DP. How it is done:
as §1
Glume blotch of wheat (Leptosphaeria nodorum--LEPTNO): Wheat (cultivar Monon) was grown from seed in a soilless peat-based potting mixture (Metromix) until the seedlings were 1-2 leaf (BBCH 12). These plants were then sprayed to run off with the test compound at a rate of 100 ppm. After 24 hours the test plants were inoculated with an aqueous spore suspension of Leptosphaeria nodorum. The plants were then transferred to the greenhouse until disease developed on the untreated control plants.
as §2

The test system of experiment [4] is Puccinia recondita. The experiment can be described thus: Brown rust (Puccinia recondita--PUCCRT). The following applies: wheat (cultivar Monon), 100 ppm spray to run off, inoculated after 24 hours; for pest or weed control at 100 ppm: Puccinia recondita, 1DP, read-out: control of plant disease, PUCCRT 1DP. How it is done: as §1
Brown rust (Puccinia recondita--PUCCRT): Wheat (cultivar Monon) was grown from seed in a soilless peat-based potting mixture (Metromix) until the seedlings were […]). These plants were then sprayed to run off with the test compound at a rate of 100 ppm. After 24 hours the test plants were inoculated with an aqueous spore suspension of Puccinia recondita. The plants were then transferred to the greenhouse until disease developed on the untreated control plants.
as §2

Consider `CNC(=O)C(=NOC)c1ccccc1COc1cccc(-c2nc(C(C)C)no2)n1` [Example 87], for which the pest or weed control at 100 ppm in experiment [1], in experiment [2], in experiment [3] and in experiment [4] was 75 to 100% in each case.
Consider `CNC(=O)C(=NOC)c1ccccc1COc1cccc(-c2nc(C(C)(C)C)no2)n1` [Example 84], for which the pest or weed control at 100 ppm in experiment [1] fell in the range of 25 to 74%; in experiment [2], 75 to 100%; in experiment [3], 75 to 100%; in experiment [4], 75 to 100%.
`CNC(=O)C(=NOC)c1cccc(Cl)c1COc1cccc(-c2nc(C(C)(C)C)no2)n1` [Example 86]: in experiment [1], the “control of plant disease, ERYSGT 1DP” value is given as “++ (75-100% control of plant disease)”. Moreover, the “control of plant disease, PHYTIN 1DP” value in experiment [2] is reported as “+ (25-74% control of plant disease)”. In experiment [3], the “control of plant disease, LEPTNO 1DP” value was “- (0-24% control of plant disease)”. In addition, the “control of plant disease, PUCCRT 1DP” value in experiment [4] is recorded as “++ (75-100% control of plant disease)”.
As for `CCOc1cc(-c2cnc(OCc3ccccc3C(=NOC)C(=O)NC)c(Cl)c2)no1` [Example 40], the pest or weed control at 100 ppm in experiment [1] was in the range of 75 to 100%; in experiment [2] it was 25 to 74%; in experiment [3] it was 0 to 24%; in experiment [4] it was 75 to 100%.
In the case of `CNC(=O)C(=NOC)c1ccccc1COc1ncc(-c2noc(CC(C)(C)C)n2)cc1Cl` [Example 17], the pest or weed control at 100 ppm in experiment [1] was in the range of 75 to 100%; in experiment [2], 0 to 24%; in experiment [3], 75 to 100%; in experiment [4], 75 to 100%.
`CNC(=O)C(=NOC)c1ccccc1COc1ncc(-c2noc(-c3cccs3)n2)cc1Cl` [Example 20]: the pest or weed control at 100 ppm in experiment [1] was in the range of 75 to 100%; in experiment [2], 75 to 100%; in experiment [3] it was 0 to 24%; in experiment [4] it was 75 to 100%.
With `CNC(=O)C(=NOC)c1ccccc1COc1ccc(Cl)c(-c2nc(C(C)(C)C)no2)n1` [Example 82], the pest or weed control at 100 ppm in experiment [1], in experiment [2], in experiment [3] and in experiment [4] was 75 to 100% throughout.
In the case of `CNC(=O)C(=NOC)c1ccccc1COc1ncc(-c2noc(C)n2)cc1Cl` [Example 8], the pest or weed control at 100 ppm is 75 to 100% in experiment [1], 0 to 24% in experiment [2], 75 to 100% in experiment [3] and 75 to 100% in experiment [4].
As for `CNC(=O)C(=NOC)c1ccccc1COc1ncc(-c2noc(CCCl)n2)cc1Cl` [Example 26], the pest or weed control at 100 ppm in experiment [1], in experiment [2], in experiment [3] and in experiment [4] was 75 to 100% in each case.
On to `CNC(=O)C(=NOC)c1cccc(F)c1COc1ncc(-c2noc(C(C)(C)C)n2)cc1Cl` [Example 27], for which, in experiment [1], the “control of plant disease, ERYSGT 1DP” value is “++ (75-100% control of plant disease)”. Moreover, the “control of plant disease, PHYTIN 1DP” value in experiment [2] was “- (0-24% control of plant disease)”. For the same molecule, in experiment [3], the “control of plant disease, LEPTNO 1DP” value is listed as “++ (75-100% control of plant disease)”. In experiment [4], the “control of plant disease, PUCCRT 1DP” value is listed as “++ (75-100% control of plant disease)”.
In the case of `CNC(=O)C(=NOC)c1ccccc1COc1ncc(-c2nc(CC(C)C)no2)cc1Cl` [Example 77], the pest or weed control at 100 ppm in experiment [1] lay within 75 to 100%; in experiment [2], 0 to 24%; in experiment [3], 75 to 100%; in experiment [4], 75 to 100%.
On to `CCCc1noc(-c2cnc(OCc3ccccc3C(=NOC)C(=O)NC)c(Cl)c2)n1` [Example 78], for which the pest or weed control at 100 ppm in experiment [1] is 75 to 100%; in experiment [2], 0 to 24%; in experiment [3], 75 to 100%; in experiment [4], 75 to 100%.
Turning to `CNC(=O)C(=NOC)c1ccccc1COc1ncc(-c2nc(C3CCCCC3)no2)cc1Cl` [Example 72], the pest or weed control at 100 ppm lay in the range of 0 to 24% in experiment [1], 0 to 24% in experiment [2], 0 to 24% in experiment [3] and 75 to 100% in experiment [4].
Take `CNC(=O)C(=NOC)c1ccccc1COc1ccc(-c2nc(C(C)(C)C)no2)cn1` [Example 65]: the pest or weed control at 100 ppm in experiment [1] was 75 to 100%; in experiment [2], 0 to 24%; in experiment [3] it was 75 to 100%; in experiment [4], 75 to 100%.
On to `CCc1nc(-c2cnc(OCc3ccccc3C(=NOC)C(=O)NC)c(Cl)c2)no1` [Example 36], for which the pest or weed control at 100 ppm in experiment [1] lay in the range of 75 to 100%; in experiment [2], 0 to 24%; in experiment [3], 75 to 100%; in experiment [4], 75 to 100%.
Turning to `CNC(=O)C(=NOC)c1ccccc1COc1ncc(-c2noc(-c3ccco3)n2)cc1Cl` [Example 18], the pest or weed control at 100 ppm in experiment [1] lay in the range of 25 to 74%; in experiment [2], 75 to 100%; in experiment [3], 75 to 100%; in experiment [4], 75 to 100%.
`CNC(=O)C(=NOC)c1ccccc1COc1ncc(-c2noc(C3CC3)n2)cc1Cl` [Example 21]: the pest or weed control at 100 ppm in experiment [1], in experiment [2], in experiment [3] and in experiment [4] was 75 to 100% each time.
`CNC(=O)C(=NOC)c1ccccc1COc1ncc(-c2nc(C)no2)cc1Cl` [Example 49, Benzeneacetamide, 2-[[[3-chloro-5-(3-methyl-1,2,4-oxadiazol-5-yl)-2-pyridinyl]oxy]methyl]-α-(methoxyimino)-N-methyl-]: the pest or weed control at 100 ppm in experiment [1] was 75 to 100%; in experiment [2], 0 to 24%; in experiment [3], 75 to 100%; in experiment [4] it was 75 to 100%.
Consider `CNC(=O)C(=NOC)c1ccccc1COc1ncc(-c2nc(C3CC3)no2)cc1Cl` [Example 53], for which the pest or weed control at 100 ppm in experiment [1] was 75 to 100%; in experiment [2], 75 to 100%; in experiment [3], 25 to 74%; in experiment [4] it was 75 to 100%.
In the case of `CNC(=O)C(=NOC)c1ccccc1COc1ncc(-c2noc(C3CCCC3)n2)cc1Cl` [Example 13], the pest or weed control at 100 ppm is 75 to 100% in experiment [1], 0 to 24% in experiment [2], 75 to 100% in experiment [3] and 75 to 100% in experiment [4].
Take `CCCCC(CC)c1nc(-c2cnc(OCc3ccccc3C(=NOC)C(=O)NC)c(Cl)c2)no1` (stereo not drawn) [Example 14]: the pest or weed control at 100 ppm is 75 to 100% in experiment [1], 0 to 24% in experiment [2], 75 to 100% in experiment [3] and 75 to 100% in experiment [4].
Turning to `CNC(=O)C(=NOC)c1ccccc1COc1ncc(-c2nc(N(C)C)no2)cc1Cl` [Example 64], the pest or weed control at 100 ppm in experiment [1] is 75 to 100%; in experiment [2] it was 0 to 24%; in experiment [3], 75 to 100%; in experiment [4] it was 75 to 100%.
For the molecule `CNC(=O)C(=NOC)c1ccccc1COc1ccc(-c2noc(C(C)(C)C)n2)cn1` [Example 9], the pest or weed control at 100 ppm in experiment [1] lay in the range of 75 to 100%; in experiment [2] it was 0 to 24%; in experiment [3], 75 to 100%; in experiment [4] it was 75 to 100%.
With `CNC(=O)C(=NOC)c1ccccc1COc1ncc(-c2noc(COC)n2)cc1Cl` [Example 23], the pest or weed control at 100 ppm lay within 75 to 100% in experiment [1], 0 to 24% in experiment [2], 25 to 74% in experiment [3] and 75 to 100% in experiment [4].
`CNC(=O)C(=NOC)c1ccccc1COc1ccc(-c2cc(C(C)(C)C)on2)cn1` [Example 43]: the pest or weed control at 100 ppm in experiment [1], in experiment [2], in experiment [3] and in experiment [4] was 75 to 100% in each case.
For `CNC(=O)C(=NOC)c1ccccc1COc1cccc(-c2nc(C(F)(F)F)no2)n1` [Example 89], the pest or weed control at 100 ppm in experiment [1] is 0 to 24%; in experiment [2], 75 to 100%; in experiment [3], 0 to 24%; in experiment [4], 75 to 100%.
In the case of `CCOC(=O)c1nc(-c2cnc(OCc3ccccc3C(=NOC)C(=O)NC)c(C)c2)oc1C` [Example 52, Benzeneacetamide, 2-[[[3-methyl-5-(4-ethoxycarbonyl-5-methyl-oxazol-2-yl)-2-pyridinyl]oxy]methyl]-α-(methoxyimino)-N-methyl-], the pest or weed control at 100 ppm in experiment [1] lay in the range of 25 to 74%; in experiment [2] it was 75 to 100%; in experiment [3], 25 to 74%; in experiment [4], 75 to 100%.
